Results: paper PMC5813806 (ACS chemical neuroscience, 2016)
Where “and” joins values, the source holds several entries; their conditions need not be identical. Identical values can stand only once. Like-named read-outs stand apart in the source and are kept apart here.

Experiments:
[1] = molecular target: T1, human D2 receptor (CHO-D2R) (Homo sapiens, UniProt P14416); assay: ERK1/2 phosphorylation; assay type: cell-based; conditions: CHO-D2R cells, 1 μM, 5 min
[2] = molecular target: T1, human D2 receptor (CHO-D2R); assay: [3H]methylspiperone binding to CHO-D2R membranes; conditions: 10 μM; for Affinity to D2R, high-affinity state (result in words): CHO-D2R membranes pretreated with GDP and Na+, Mg2+ buffer; for Binding to D2R in binding screening (result in words): CHO-D2R, regular binding buffer
[3] = molecular target: T2, human D3 receptor (CHO-D3R) (Homo sapiens, UniProt P35462); assay: ERK1/2 phosphorylation; assay type: cell-based; conditions: for ERK1/2 phosphorylation, functional screening (result in words): CHO-D3R cells, 5 min
[4] = molecular target: T2, human D3 receptor (CHO-D3R); assay: Agonist-induced [35S]GTPγS binding to CHO-D3R membranes; assay type: biochemical
[5] = molecular target: T1, human D2 receptor (CHO-D2R); assay: Agonist-induced [35S]GTPγS binding to CHO-D2R membranes; assay type: biochemical
hD3R = hD3R (Homo sapiens, UniProt P35462); assay: PathHunter eXpress U2OS D3R β-arrestin-2 recruitment assay; assay type: cell-based
[6] = molecular target: human D3 receptor (HEK-D3R) (Homo sapiens, UniProt P35462); assay type: cell-based; conditions: 1 μM 30 min pretreatment, washes, 1 μM 2 min
[7] = molecular target: T2, human D3 receptor (CHO-D3R); assay: [3H]methylspiperone binding to CHO-D3R membranes; conditions: for Ki: [3H]methylspiperone competition, two-site analysis
[8] = molecular target: T3, human D4 receptor (HEK-D4R) (Homo sapiens, UniProt P21917); assay: [3H]methylspiperone binding screening at HEK-D4R; conditions: 10 μM
T3 sequence (P21917 1-419): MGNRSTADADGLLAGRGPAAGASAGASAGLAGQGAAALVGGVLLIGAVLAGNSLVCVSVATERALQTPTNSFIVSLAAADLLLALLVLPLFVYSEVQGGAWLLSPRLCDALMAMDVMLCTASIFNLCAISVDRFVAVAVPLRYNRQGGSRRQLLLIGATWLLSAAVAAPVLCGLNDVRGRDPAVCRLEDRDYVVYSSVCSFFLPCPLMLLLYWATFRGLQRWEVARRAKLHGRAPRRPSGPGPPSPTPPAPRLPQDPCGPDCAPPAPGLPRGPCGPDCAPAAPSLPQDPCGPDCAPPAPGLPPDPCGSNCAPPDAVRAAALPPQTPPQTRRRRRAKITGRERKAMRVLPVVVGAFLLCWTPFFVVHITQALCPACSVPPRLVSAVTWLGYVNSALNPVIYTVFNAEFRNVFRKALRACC

T1 sequence (P14416 whole entry): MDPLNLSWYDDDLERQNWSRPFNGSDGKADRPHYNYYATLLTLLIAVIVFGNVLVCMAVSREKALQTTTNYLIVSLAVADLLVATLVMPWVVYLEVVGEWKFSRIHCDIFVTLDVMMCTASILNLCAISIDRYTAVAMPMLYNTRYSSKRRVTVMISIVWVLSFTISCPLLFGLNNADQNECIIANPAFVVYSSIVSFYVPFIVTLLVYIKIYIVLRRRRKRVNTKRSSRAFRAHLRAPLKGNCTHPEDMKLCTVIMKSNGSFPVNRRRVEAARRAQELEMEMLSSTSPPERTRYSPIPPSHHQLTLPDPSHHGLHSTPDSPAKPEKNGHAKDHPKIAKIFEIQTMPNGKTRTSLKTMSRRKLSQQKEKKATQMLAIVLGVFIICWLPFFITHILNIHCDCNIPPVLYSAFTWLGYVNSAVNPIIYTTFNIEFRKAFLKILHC
T2 sequence (P35462 whole entry): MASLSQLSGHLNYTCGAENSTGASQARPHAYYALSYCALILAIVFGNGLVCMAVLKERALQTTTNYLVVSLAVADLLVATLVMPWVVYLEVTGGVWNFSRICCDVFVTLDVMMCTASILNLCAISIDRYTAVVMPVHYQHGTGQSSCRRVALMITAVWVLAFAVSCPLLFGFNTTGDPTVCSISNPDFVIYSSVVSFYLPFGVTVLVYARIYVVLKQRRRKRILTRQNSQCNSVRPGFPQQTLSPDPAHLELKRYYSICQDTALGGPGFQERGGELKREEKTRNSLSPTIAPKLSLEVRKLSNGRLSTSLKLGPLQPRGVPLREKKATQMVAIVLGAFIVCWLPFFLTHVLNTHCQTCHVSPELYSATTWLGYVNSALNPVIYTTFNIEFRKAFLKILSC
Chain of hD3R (P35462 whole entry): as above
Chain of human D3 receptor (HEK-D3R) (P35462 whole entry): as above

Row | Structure (SMILES) | ERK1/2 phosphorylation, functional screening (result in words) [1] | Affinity to D2R, high-affinity state (result in words) [2] | Binding to D2R in binding screening (result in words) [2] | ERK1/2 phosphorylation Emax ([3]; CHO-D3R cells treated 5 min at 37 °C, DA = 100) | ERK1/2 phosphorylation, functional screening (result in words) ([3]; 1 μM) | EC50 ([3]; read-out: ERK1/2 phosphorylation EC50, CHO-D3R cells treated 5 min at 37 °C) [nM] | [35S]GTPγS binding Emax ([4]; DA effect defined as 100%) | EC50 ([4]; read-out: [35S]GTPγS binding EC50) | [35S]GTPγS binding Emax ([5]; D2R, DA effect defined as 100%) | EC50 ([5]; read-out: [35S]GTPγS binding EC50, D2R (CHO-D2R membranes)) [nM] | β-arrestin recruitment Emax (hD3R; perhaps underestimates from incomplete curves) | EC50 (hD3R; read-out: β-arrestin recruitment EC50, 90 min stimulation) [nM] | Desensitization of D3R/ERK1/2 signaling on repeated treatment [6] | Binding to D3R in binding screening (result in words) ([7]; CHO-D3R, 10 μM) | Ki ([7]; read-out: Ki-H (high-affinity Ki) to CHO-hD3) [nM] | Ki ([7]; read-out: Ki-L (low-affinity Ki) to CHO-hD3) [nM] | Binding to D4R in binding screening (result in words) [8] | IC50 ([2]; read-out: IC50 for D2R binding, low-affinity state, CHO-D2R in Na+-GTPγS binding buffer) [nM] | Selectivity to D3R in ERK1/2 activation ([3]; CHO-D3R versus CHO-D2R cells, 1 μM)
1 | NCCc1ccc(O)c(O)c1 [DA, dopamine] | significantly evoked ERK1/2 phosphorylation | higher affinity for D2R than in the regular binding buffer | high binding affinity |  |  |  |  |  |  |  |  |  |  |  |  |  |  |  | 
2 | CCCN1CCO[C@@H]2c3cc(O)ccc3OC[C@H]21 [PD128907] | significantly evoked ERK1/2 phosphorylation | higher affinity for D2R than in the regular binding buffer | high binding affinity | 100 | significantly activated ERK1/2 phosphorylation | 7.1 ± 0.5 | 95.1 ± 2.1 % of DA | 1.19 nM and 1.2 nM | 92.8 ± 1.7 % of DA | 103 ± 29.6 | 100 % of PD128907 | 5.5 ± 0.18 | significant reduction of ERK1/2 phosphorylation signal | high binding affinity | 3.7 ± 1.6 | 14.6 ± 3.6 | high binding affinity | > 10000 | 
3 | CC(N)CCc1ccco1 (centres unmarked) [SK603, 4-(fluran-2-yl)butan-2-amine] |  |  |  |  | reduction in functional effect |  |  |  |  |  |  |  |  |  |  |  |  |  | maintained selectivity to D3R
